This is an account of results in patent US11987568B2, “Allosteric inhibitor of WEE1 kinase” (H. LEE MOFFITT CANCER CENTER AND RESEARCH INSTITUTE, INC., priority 2018, dated 2024).

By IC50 is commonly meant the concentration needed to halve the response being measured. High values mean lower potency, low ones higher potency. Broadly, the logD is lipophilicity at a set pH, counting ionised and neutral species. A low value points to lower lipophilicity.

The subject of data set [1] is LAPC4 cells. Description: LAPC4 cell proliferation, trypan blue exclusion assay. Type of data set: cell-based. As to conditions: Homo sapiens, 96 hr, viable cells by trypan blue exclusion. The text has this:
FIGS. 2A-2B show identification of 3 distinct types of inhibitors. […] In addition, the lysates were also subjected to by immunoblotting with […]-Cdc2 or actin antibodies (middle and bottom panels). […] The number vehicle treated cells were used as control and percent of surviving cells were plotted. […] The number of vehicle treated cells were used as control and percent of surviving cells were plotted. […] The number vehicle treated cells were used as control and percent of surviving cells were plotted. 7 of these epigenetic inhibitors in various assays such as cell proliferation assay, an in vitro kinase assay were performed and WEE1 autophosphorylation in vivo was determined. Prostate cancer derived LAPC4 cells were treated with inhibitors and its effect on cell proliferation was examined.

Data set [2] has as its target WEE1 (Homo sapiens, UniProt P30291). Description: Endogenous WEE1 auto-phosphorylation in cells (WEE1 IP, pTyr immunoblot). Type of data set: cell-based. As to conditions: LNCaP cells, 10 μM overnight (FIG. 3B). The protocol: The reaction mix was then subjected to immunoprecipitated with WEE1 antibodies, followed by immunoblotting with pTyr antibodies (top panel). As a control, purified ACK1 protein was incubated in the reaction buffer containing ATP, in presence of 100 nM epigenetic inhibitors. The reaction mix was then subjected to immunoprecipitated with ACK1 antibodies, followed by immunoblotting with pTyr antibodies (bottom panel). […] In addition, the lysates were also subjected to immunoblotting with actin antibodies (bottom panel). […] In addition, the lysates were also subjected to immunoblotting with actin antibodies (bottom panel). […] In addition, the lysates were also subjected to immunoblotting with actin antibodies (bottom panel). To determine direct binding of these compounds causing WEE1 inhibition, a full length WEE1 kinase protein was incubated with the compounds. […] These inhibitors were further validated by assessing their ability to suppress endogenous WEEE activity; LNCaP cells were treated with 10 μM of these compounds overnight.
(Immunoblotting shows a protein as a band on a membrane.)

Data set [3] deals with IDH2 mRNA in melanoma cell line WM66. Description: IDH2 mRNA qRT-PCR in WM66 cells. Type of data set: cell-based. The following applies: 10 uM, 16 hr. The protocol: (§1) WM66 cells (FIG. 5A) or primary melanocytes (FIG. 5B) were treated with vehicle or compounds (10 uM) for 16 hr. Total RNA was isolated followed by qRT-PCR with IDH2 and actin primers. FIG. 5C indicated cells were treated with vehicle or compounds (10 uM) for 16 hr. Total genomic DNA was isolated, slot-blotted onto a nitrocellulose membrane, followed by blotting with 5-hmC antibodies (top panels). Blots were also stained with methylene blue, to determine equal loading of DNA (bottom panel).
(§2) Identification of 55152 (18-B3) scaffold as a WEE1 epigenetic inhibitor: Two major hits, 367416 (16-G9) and 55152 (18-B3) were taken up for further characterization. […] Accordingly, melanoma cell line WM66 and primary melanocytes were treated with inhibitors and IDH2 mRNA levels were measure by real time PCR.
(Quantitative PCR measures a nucleic acid by following its amplification.)

Data set [4] deals with 5hmC levels. Description: 5-hmC slot blot of genomic DNA. As to conditions: 10 uM, 16 hr. Format: cell-based. The protocol: as §1, §2
A short description of data set [5]: LogD. Format: physicochemical. The following applies: pH 7.4. The protocol: (§3) ADME studies with 55152 (18-B3) and 367416 (16-G9): The solubility, microsome stability and plasma stability of these two compounds were also determined (Table 2).
The nature of data set [6]: Microsome Stability, Human. Format: in vitro ADME. The protocol:
as §3

A short description of data set [7]: Microsome Stability, Mouse. Format: in vitro ADME. The protocol:
as §3

Data set [8] can be described thus: Plasma Stability, Human. Format: in vitro ADME. The protocol:
as §3

Data set [9] can be described thus: Plasma Stability, Mouse. Format: in vitro ADME. The protocol:
as §3

In data set [10] the target is T1, Wee1 KD (Homo sapiens, UniProt P30291).
T1 construct: WEE1 & WEE2 (as control) kinase domains from mammalian cells (HEK293T cells) were purified
T1 sequence (P30291 299-569): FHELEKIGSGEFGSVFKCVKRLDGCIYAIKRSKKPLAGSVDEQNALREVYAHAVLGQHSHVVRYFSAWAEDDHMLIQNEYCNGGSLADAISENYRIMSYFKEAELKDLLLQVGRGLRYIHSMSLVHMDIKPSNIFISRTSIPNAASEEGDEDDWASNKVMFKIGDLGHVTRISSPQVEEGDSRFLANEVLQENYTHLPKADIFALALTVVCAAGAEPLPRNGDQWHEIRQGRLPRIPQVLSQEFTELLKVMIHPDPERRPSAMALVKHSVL
Description: Differential Scanning Fluorimetry (DSF), Wee1 KD. Type of data set: binding. As to conditions: kinase domain purified from HEK293T cells. The protocol: (§4) Binding study of WEE1 epigenetic inhibitors: To identify the precise binding region/domain of WEE1 epigenetic inhibitors, WEE1 & WEE2 (as control) kinase domains from mammalian cells (HEK293T cells) were purified. The binding of inhibitors was assessed using Differential Scanning Fluorimetry (DSF).
For orientation: In DSF a fluorescence change marks the thermal transition of the protein.

Data set [11] addresses T2, Wee2 KD (Homo sapiens, UniProt P0C1S8).
T2 construct: WEE1 & WEE2 (as control) kinase domains from mammalian cells (HEK293T cells) were purified
Description: Differential Scanning Fluorimetry (DSF), Wee2 KD. Type of data set: binding. The following applies: kinase domain purified from HEK293T cells. The protocol:
as §4

The target of data set [12] is T3, full length human WEE1 kinase (Homo sapiens, UniProt P30291). Description: In vitro kinase assay, purified full length WEE1, pTyr immunoblot. Type of data set: biochemical. On the set-up: a full length WEE1 kinase protein was incubated with the compounds. The following applies: purified full length WEE1, 100 nM (FIG. 3A, 4A). The protocol:
The reaction mix was then subjected to immunoprecipitated with WEE1 antibodies, followed by immunoblotting with pTyr antibodies (top panel). As a control, purified ACK1 protein was incubated in the reaction buffer containing ATP, in presence of 100 nM epigenetic inhibitors. The reaction mix was then subjected to immunoprecipitated with ACK1 antibodies, followed by immunoblotting with pTyr antibodies (bottom panel). […] In addition, the lysates were also subjected to immunoblotting with actin antibodies (bottom panel). […] In addition, the lysates were also subjected to immunoblotting with actin antibodies (bottom panel).
FIGS. 4A-4B show structures of ‘hits’ identified in WEE1 epigenetic inhibitor screen. […] The reaction mix was then subjected to immunoprecipitated with WEE1 antibodies, followed by immunoblotting with pTyr antibodies. […] In addition, the lysates were also subjected to immunoblotting with actin antibodies (bottom panel).
To determine direct binding of these compounds causing WEE1 inhibition, a full length WEE1 kinase protein was incubated with the compounds. […] As a control, purified ACK1 kinase was also incubated with these compounds, none of these compounds were able to inhibit ACK1 kinase activity. These inhibitors were further validated by assessing their ability to suppress endogenous WEEE activity; LNCaP cells were treated with 10 μM of these compounds overnight.

Data set [13] concerns the target T3, full length human WEE1 kinase. Description: ELISA based assay: WEE1 phosphorylation of biotinylated H2B peptide spanning Tyr37. The arrangement: A full length human WEE1 kinase that was enzymatically active was purified from insect cell. Format: biochemical. The following applies: Table 1; several values in a cell are repeat determinations. The text has this:
Designing of a Novel inhibitor Screening Platform: […] A full length human WEE1 kinase that was enzymatically active was purified from insect cell. […] NCI diversity set compound library ( 1600 compounds) was used for the screening.

Each structure is given as a SMILES string. Values joined by “and” are separate entries in the source; they are usually repeats but may differ in a detail not shown here. Equal values may be shown once.

T3 sequence (P30291 whole entry): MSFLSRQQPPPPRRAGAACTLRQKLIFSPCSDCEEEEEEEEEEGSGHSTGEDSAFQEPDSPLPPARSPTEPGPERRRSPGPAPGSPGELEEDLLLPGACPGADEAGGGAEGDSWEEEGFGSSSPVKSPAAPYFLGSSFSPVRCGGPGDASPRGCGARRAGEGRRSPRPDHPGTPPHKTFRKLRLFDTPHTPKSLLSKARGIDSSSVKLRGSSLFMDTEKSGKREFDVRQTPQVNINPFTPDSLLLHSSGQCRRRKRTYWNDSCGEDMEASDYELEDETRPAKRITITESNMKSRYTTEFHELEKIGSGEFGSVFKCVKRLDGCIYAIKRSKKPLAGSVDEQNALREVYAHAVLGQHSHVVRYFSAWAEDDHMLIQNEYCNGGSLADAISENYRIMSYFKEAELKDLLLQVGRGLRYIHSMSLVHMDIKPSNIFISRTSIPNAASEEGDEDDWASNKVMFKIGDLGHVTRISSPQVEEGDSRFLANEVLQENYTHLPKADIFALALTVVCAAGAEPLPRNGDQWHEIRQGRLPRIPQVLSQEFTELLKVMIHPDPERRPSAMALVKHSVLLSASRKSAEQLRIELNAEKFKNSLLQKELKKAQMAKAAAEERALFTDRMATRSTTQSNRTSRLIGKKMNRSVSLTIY
T2 sequence (P0C1S8 212-486): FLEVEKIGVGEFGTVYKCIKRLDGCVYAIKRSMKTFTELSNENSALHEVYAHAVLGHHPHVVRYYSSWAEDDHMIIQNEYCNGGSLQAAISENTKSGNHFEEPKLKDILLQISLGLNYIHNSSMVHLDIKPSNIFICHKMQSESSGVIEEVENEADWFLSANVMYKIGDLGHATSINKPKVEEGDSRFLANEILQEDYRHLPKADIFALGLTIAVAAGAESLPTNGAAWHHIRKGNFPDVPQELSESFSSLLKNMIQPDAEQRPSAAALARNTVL
Chain of WEE1 (P30291 whole entry): as the sequence (P30291 whole entry) above

Consider `Nc1ccc(NC(=O)c2ccc(C(=O)Nc3ccc(N)cc3)cc2)cc1` [SG5-061, N^1,N^4-bis(4-aminophenyl)terephthalamide], for which, in data set [1], inhibition was half-maximal at 1000 nM (IC50). Besides, the WEE1 auto-phosphorylation entry in data set [2] was “significant loss of WEE1 auto-phosphorylation”. The “IDH2 mRNA levels” value in data set [3] is recorded as “Significant increase in IDH2 mRNA levels”. Also, in data set [4], the 5hmC levels result is given as “Corresponding increase in 5hmC levels”. Moreover, the logD in data set [5] came to 0.98. The “Microsome Stability % remaining @ 1 hr Human” value in [6] was 64.56%. Moreover, the “Microsome Stability % remaining @ 1 hr Mouse” value in data set [7] came to 95.21%. Also, in data set [8], the “Plasma Stability % remaining @ 3 hrs Human” value was 58.57%. Further, in data set [9], the “Plasma Stability % remaining @ 3 hrs Mouse” value is 50.76%. Also, the “ΔTm for Wee1 KD (° C.)” value in data set [10] amounted to 0.5 °C; in data set [10] (listed as 55152 (18-B3)), 0.8 °C. For the same molecule, the “ΔTm for Wee2 KD (° C.)” value came to 0.1 °C in [11] and 1.1 °C in [11] (listed as 55152 (18-B3)). In addition, the entries for the “WEE1 kinase activity (pTyr immunoblot)” value in data set [12] (listed as 18-B3) and in [12] (listed as 55152 (18-B3)) were “suppresses kinase activation better than 16-G9” and “significant loss of WEE1 kinase activity”, respectively. The “ELISA Inhibition (%)” value in data set [13] is 112% and 81% and 82% and 87% and 83% and 100% and 106%.
